# Source: US20110066238A1, “RECONSTRUCTED CORNEA AND MUCOUS MEMBRANE” (BASF BEUTY CARE SOLUTIONS FRANCE S.A.S, priority 2008, published 2011)
# Legend:
# Assay type in all cases: cell-based
# [1] = tested on: reconstructed human hemi-corneas; experiment: Cellular recovery of reconstructed human hemi-corneas treated with SDS, histological analysis
# Experimental: The reconstructed human hemi-corneas are treated for 10 minutes by complete immersion, with increasing solutions of SDS (0.5%, 1%, 2% and 3%). After the treatment, the reconstructed human hemi-corneas are rinsed with culture medium, for example DMEM, and then fixed, for example with formaldehyde, and then included in paraffin. Paraffin slices are then prepared by microtome, preferentially at a thickness of 5 μm, and then stained, for example, with haematoxylin, phloxin and saffron. […] At and above 0.5% SDS, a histological effect on the reconstructed human hemi-corneas is observed.
# After treatment with SDS, the reconstructed human hemi-corneas are rinsed with culture medium, for example, DMEM, and then recultured for at least a further 24 hours in the culture medium described for the preparation of the reconstructed human hemi-corneas (Example 5). The histological studies are performed as described in Example 5.
# [2] = tested on: IL-6; experiment: Secretion of IL-6 by reconstructed human hemi-corneas treated with SDS (membrane ARRAY); conditions: culture supernatant after at least 24 hours of reculture following SDS treatment; irritant effect without cell mortality
# Experimental: After treating with SDS, the reconstructed human hemi-corneas are rinsed with culture medium, for example, DMEM, and then recultured for at least a further 24 hours in the culture medium described for the preparation of the reconstructed human hemi-corneas (Example 5).
# The culture supernatants of the reconstructed human hemi-corneas are then recovered in order to assay the secreted pro-inflammatory cytokines. The culture supernatants optionally may be frozen before use.
# The inventors evaluated the secretion of IL-6, for example by means of a “membrane ARRAY” method as a function of the cell viability previously studied in Example 6.
# [3] = tested on: reconstructed human hemi-corneas; experiment: Cell viability (MTT) of reconstructed human hemi-corneas treated with SDS; conditions: beyond 0.5% SDS, 10 minutes immersion
# [4] = tested on: reconstructed human hemi-corneas; experiment: Histological study of reconstructed human hemi-corneas treated with SDS; conditions: 10 minutes, complete immersion; 0.5%, 1%, 2%, 3% SDS tested
# Experimental: A cell suspension preferentially containing 2×10^5 corneal epithelial cells/500 μl of culture medium is seeded on the surface of the reconstructed human corneal stroma. The culture medium used is preferentially composed of DMEM/HAM F12 (2/1), 10% foetal calf serum (FCS), EGF (10 ng/ml), insulin (5 μg/ml), adenine (0.18 mM), hydrocortisone (0.4 μg/ml), cholera toxin (0.1 nM), triiodothyronine (2 nM), glutamine (4 mM), ascorbic acid (1 mM), penicillin G (100 IU/ml), gentamicin (20 μg/ml) and amphotericin B (1 μg/ml). The corneal epithelial cells are cultured by immersion for 7 days on the equivalent corneal stroma and with the medium described above.
# The cultures are then raised to the air/liquid interface and then cultured for a further 14 days with a culture medium preferentially composed of DMEM, hydrocortisone (0.4 μg/ml), insulin (5 μg/ml), ascorbic acid (1 mM), penicillin G (100 IU/ml), gentamicin (20 μg/ml) and amphotericin B (1 μg/ml).
# The reconstructed human hemi-corneas are treated for 10 minutes by complete immersion, with increasing solutions of SDS (0.5%, 1%, 2% and 3%). After the treatment, the reconstructed human hemi-corneas are rinsed with culture medium, for example DMEM, and then fixed, for example with formaldehyde, and then included in paraffin. […]
# [5] = tested on: reconstructed human hemi-corneas; experiment: Cellular recovery of reconstructed human hemi-corneas treated with SDS, cell viability
# Experimental: After culturing for 7, 14 or 28 days, the reconstructed human corneal stromas are analysed in the following manner: • the cultures are incubated for 2 hours at 37° C. in 2 ml of MTT (methyl thiazolyl tetrazolium) at 1 mg/ml. The negative control corresponds to the biomaterial not containing keratocytes; • the cultures are then recovered, and then incubated in 4 ml of DMSO (dimethyl sulfoxide) for 4 hours with stirring; • a fraction of the culture supernatant (200 μl) of each sample is recovered and then analysed by spectrophotocolorimetry (550 nm). The optical density read is directly proportional to the number of living cells. The biomaterial that has a porosity of between 40 and 50 μm is suitable for the proliferation of keratocytes. Indeed, the cellular proliferation kinetics of the keratocytes is proportional to the culturing time of the reconstructed human corneal stromas. Furthermore, irrespective of the conditions of manufacture of our biomaterial [1.6%, 1.4% and 1.25% dry matter], as described in Example 2, the keratocytes have a similar degree of proliferation.
# After treatment with SDS, the reconstructed human hemi-corneas are rinsed with culture medium, for example, DMEM, and then recultured for at least a further 24 hours in the culture medium described for the preparation of the reconstructed human hemi-corneas (Example 5). […]
compound,measurement,setting,value
"CCCCCCCCCCCCOS(=O)(=O)[O-].[Na+] [SDS, sodium dodecyl sulfate]",epithelial organization after cellular recovery (histology),"[1]; 0.5% and 1% SDS, after 48 hours of cellular recovery",epithelial organization close to that of untreated hemi-corneas
same,epithelial organization after cellular recovery (histology),"[1]; 2% and 3% SDS, after recovery",irreversible epithelial damage
same,secretion of IL-6,[2],strong secretion of IL-6
same,cell viability,[3],less than 75%
same,SDS concentration at which a histological effect is observed,[4],≥ 0.5%
same,cell viability after recovery (T=48 h) versus after treatment (T=0 h),[5]; 0.5% SDS,significantly equivalent
same,cell viability after recovery (T=48 h) versus after treatment (T=0 h),"[5]; 1%, 2% and 3% SDS",significantly lower cell viability
